Experimental data: patent US20130209543A1, “ENHANCED TREATMENT REGIMENS USING MTOR INHIBITORS” (Intellikine LLC, priority 2011, published 2013)

Key:
[1] = Additional study: grade 3 or greater treatment-emergent adverse events (Table 10); format: in vivo, human
[2] = tested on: TORC1 (p4EBP1 and pS6) and TORC2 (pPRAS40); test: Human skin immunohistochemistry assay (skin biopsies, pathway inhibition); format: in vivo; conditions: 6 mg QD, read-out: PD (% inhibition, H score) Skin: 4EBP1/PRAS40
Experimental: Human Skin Immunohistochemistry Assay.
Skin tissue was fixed in 10% neutral-buffered formalin solution for 24 hours and then processed and embedded in paraffin block. Sections (4 μm) were cut and mounted onto microscopic slides. Sections were incubated with primary antibodies (p4EBP1, pS6, or pRAS40) overnight and developed using a chromogenic substrate.
Pharmacodynamic (PD) endpoints were evaluated in surrogate (peripheral blood cells [PBCs], skin) and tumor tissues for the phosphorylation of TORC1-dependent markers (4EBP1/S6), and TORC2-dependent markers (AKT/PRAS40). 50 patients were treated in 3 intermittent dosing regimens; 21 in 6 cohorts ranging 7-40 mg QW, 20 in 5 cohorts ranging 6-20 mg QD×3d QW, and 9 in 3 cohorts ranging 7-13 mg QD×5d QW. […] The MTD for intermittent dosing was not reached. All adverse events (AEs) reported were reversible. The most common (≧20%, n=35) AEs considered possibly related to compound A reported in all 3 dosing regimens included nausea (51%), hyperglycemia (37%), mucosal inflammation (29%), rash (23%), asthenia (23%), vomiting (26%), and diarrhea (20%). The majority of AEs considered possibly related to compound A in any regimen were Grade 1 or 2. The only reported Grade≧3 AE (≧5%) possibly related to compound A in 3 regimens was lymphopenia (6%). Tables 4-9 show summaries of observed adverse events for various treatment regimens of the invention.

Structure (SMILES): CC(C)n1nc(-c2ccc3oc(N)nc3c2)c2c(N)ncnc21 [compound A]
- Anaemia, grade 3 or greater TEAE ([1]; Total (N = 91)): 6 (7%)
- Aspartate aminotransferase increase, grade 3 or greater TEAE ([1]; Total (N = 91)): 2 (2%)
- Asthenia, grade 3 or greater TEAE ([1]; Total (N = 91)): 4 (4%)
- Blood creatinine increase, grade 3 or greater TEAE ([1]; Total (N = 91)): 2 (2%)
- Deep vein thrombosis, grade 3 or greater TEAE ([1]; Total (N = 91)): 2 (2%)
- Diarrhoea, grade 3 or greater TEAE ([1]; Total (N = 91)): 3 (3%)
- Disease progression, grade 3 or greater TEAE ([1]; Total (N = 91)): 2 (2%)
- Fatigue, grade 3 or greater TEAE ([1]; Total (N = 91)): 3 (3%)
- Gamma-glutamyltransferase increase, grade 3 or greater TEAE ([1]; Total (N = 91)): 3 (3%)
- Hyperglycaemia, grade 3 or greater TEAE ([1]; Total (N = 91)): 9 (10%)
- Hypokalaemia, grade 3 or greater TEAE ([1]; Total (N = 91)): 3 (3%)
- Hyponatraemia, grade 3 or greater TEAE ([1]; Total (N = 91)): 2 (2%)
- Hypophsphataemia, grade 3 or greater TEAE ([1]; Total (N = 91)): 5 (5%)
- Lymphopenia, grade 3 or greater TEAE ([1]; Total (N = 91)): 6 (7%)
- Mucosal Inflammation, grade 3 or greater TEAE ([1]; Total (N = 91)): 7 (8%)
- Muscular weakness, grade 3 or greater TEAE ([1]; Total (N = 91)): 2 (2%)
- Nausea, grade 3 or greater TEAE ([1]; Total (N = 91)): 2 (2%)
- Neutropenia, grade 3 or greater TEAE ([1]; Total (N = 91)): 2 (2%)
- Pruritus, grade 3 or greater TEAE ([1]; Total (N = 91)): 3 (3%)
- Rash, grade 3 or greater TEAE ([1]; Total (N = 91)): 9 (10%)
- Thrombocytopenia, grade 3 or greater TEAE ([1]; Total (N = 91)): 2 (2%)
- Vomiting, grade 3 or greater TEAE ([1]; Total (N = 91)): 3 (3%)
- Anaemia, grade 3 or greater TEAE ([1]; Total QD Dosing (N = 29)): 1 (3%)
- Aspartate aminotransferase increase, grade 3 or greater TEAE ([1]; Total QD Dosing (N = 29)): 0 (0%)
- Asthenia, grade 3 or greater TEAE ([1]; Total QD Dosing (N = 29)): 1 (3%)
- Blood creatinine increase, grade 3 or greater TEAE ([1]; Total QD Dosing (N = 29)): 0 (0%)
- Deep vein thrombosis, grade 3 or greater TEAE ([1]; Total QD Dosing (N = 29)): 0 (0%)
- Diarrhoea, grade 3 or greater TEAE ([1]; Total QD Dosing (N = 29)): 1 (3%)
- Disease progression, grade 3 or greater TEAE ([1]; Total QD Dosing (N = 29)): 0 (0%)
- Fatigue, grade 3 or greater TEAE ([1]; Total QD Dosing (N = 29)): 0 (0%)
- Gamma-glutamyltransferase increase, grade 3 or greater TEAE ([1]; Total QD Dosing (N = 29)): 0 (0%)
- Hyperglycaemia, grade 3 or greater TEAE ([1]; Total QD Dosing (N = 29)): 4 (14%)
- Hypokalaemia, grade 3 or greater TEAE ([1]; Total QD Dosing (N = 29)): 2 (7%)
- Hyponatraemia, grade 3 or greater TEAE ([1]; Total QD Dosing (N = 29)): 2 (7%)
- Hypophsphataemia, grade 3 or greater TEAE ([1]; Total QD Dosing (N = 29)): 0 (0%)
- Lymphopenia, grade 3 or greater TEAE ([1]; Total QD Dosing (N = 29)): 2 (7%)
- Mucosal Inflammation, grade 3 or greater TEAE ([1]; Total QD Dosing (N = 29)): 0 (0%)
- Muscular weakness, grade 3 or greater TEAE ([1]; Total QD Dosing (N = 29)): 0 (0%)
- Nausea, grade 3 or greater TEAE ([1]; Total QD Dosing (N = 29)): 0 (0%)
- Neutropenia, grade 3 or greater TEAE ([1]; Total QD Dosing (N = 29)): 0 (0%)
- Pruritus, grade 3 or greater TEAE ([1]; Total QD Dosing (N = 29)): 2 (7%)
- Rash, grade 3 or greater TEAE ([1]; Total QD Dosing (N = 29)): 7 (24%)
- Thrombocytopenia, grade 3 or greater TEAE ([1]; Total QD Dosing (N = 29)): 2 (7%)
- Vomiting, grade 3 or greater TEAE ([1]; Total QD Dosing (N = 29)): 0 (0%)
- Anaemia, grade 3 or greater TEAE ([1]; Total QDx3d QW (N = 25)): 2 (8%)
- Aspartate aminotransferase increase, grade 3 or greater TEAE ([1]; Total QDx3d QW (N = 25)): 0 (0%)
- Asthenia, grade 3 or greater TEAE ([1]; Total QDx3d QW (N = 25)): 1 (4%)
- Blood creatinine increase, grade 3 or greater TEAE ([1]; Total QDx3d QW (N = 25)): 2 (8%)
- Deep vein thrombosis, grade 3 or greater TEAE ([1]; Total QDx3d QW (N = 25)): 1 (4%)
- Diarrhoea, grade 3 or greater TEAE ([1]; Total QDx3d QW (N = 25)): 1 (4%)
- Disease progression, grade 3 or greater TEAE ([1]; Total QDx3d QW (N = 25)): 0 (0%)
- Fatigue, grade 3 or greater TEAE ([1]; Total QDx3d QW (N = 25)): 0 (0%)
- Gamma-glutamyltransferase increase, grade 3 or greater TEAE ([1]; Total QDx3d QW (N = 25)): 1 (4%)
- Hyperglycaemia, grade 3 or greater TEAE ([1]; Total QDx3d QW (N = 25)): 4 (16%)
- Hypokalaemia, grade 3 or greater TEAE ([1]; Total QDx3d QW (N = 25)): 0 (0%)
- Hyponatraemia, grade 3 or greater TEAE ([1]; Total QDx3d QW (N = 25)): 0 (0%)
- Hypophsphataemia, grade 3 or greater TEAE ([1]; Total QDx3d QW (N = 25)): 3 (12%)
- Lymphopenia, grade 3 or greater TEAE ([1]; Total QDx3d QW (N = 25)): 2 (8%)
- Mucosal Inflammation, grade 3 or greater TEAE ([1]; Total QDx3d QW (N = 25)): 4 (16%)
- Muscular weakness, grade 3 or greater TEAE ([1]; Total QDx3d QW (N = 25)): 1 (4%)
- Nausea, grade 3 or greater TEAE ([1]; Total QDx3d QW (N = 25)): 1 (4%)
- Neutropenia, grade 3 or greater TEAE ([1]; Total QDx3d QW (N = 25)): 0 (0%)
- Pruritus, grade 3 or greater TEAE ([1]; Total QDx3d QW (N = 25)): 1 (4%)
- Rash, grade 3 or greater TEAE ([1]; Total QDx3d QW (N = 25)): 1 (4%)
- Thrombocytopenia, grade 3 or greater TEAE ([1]; Total QDx3d QW (N = 25)): 0 (0%)
- Vomiting, grade 3 or greater TEAE ([1]; Total QDx3d QW (N = 25)): 1 (4%)
- Anaemia, grade 3 or greater TEAE ([1]; Total QDx5d QW (N = 15)): 1 (7%)
- Aspartate aminotransferase increase, grade 3 or greater TEAE ([1]; Total QDx5d QW (N = 15)): 1 (7%)
- Asthenia, grade 3 or greater TEAE ([1]; Total QDx5d QW (N = 15)): 1 (7%)
- Blood creatinine increase, grade 3 or greater TEAE ([1]; Total QDx5d QW (N = 15)): 0 (0%)
- Deep vein thrombosis, grade 3 or greater TEAE ([1]; Total QDx5d QW (N = 15)): 0 (0%)
- Diarrhoea, grade 3 or greater TEAE ([1]; Total QDx5d QW (N = 15)): 0 (0%)
- Disease progression, grade 3 or greater TEAE ([1]; Total QDx5d QW (N = 15)): 0 (0%)
- Fatigue, grade 3 or greater TEAE ([1]; Total QDx5d QW (N = 15)): 2 (13%)
- Gamma-glutamyltransferase increase, grade 3 or greater TEAE ([1]; Total QDx5d QW (N = 15)): 1 (7%)
- Hyperglycaemia, grade 3 or greater TEAE ([1]; Total QDx5d QW (N = 15)): 1 (7%)
- Hypokalaemia, grade 3 or greater TEAE ([1]; Total QDx5d QW (N = 15)): 0 (0%)
- Hyponatraemia, grade 3 or greater TEAE ([1]; Total QDx5d QW (N = 15)): 0 (0%)
- Hypophsphataemia, grade 3 or greater TEAE ([1]; Total QDx5d QW (N = 15)): 2 (13%)
- Lymphopenia, grade 3 or greater TEAE ([1]; Total QDx5d QW (N = 15)): 1 (7%)
- Mucosal Inflammation, grade 3 or greater TEAE ([1]; Total QDx5d QW (N = 15)): 3 (20%)
- Muscular weakness, grade 3 or greater TEAE ([1]; Total QDx5d QW (N = 15)): 0 (0%)
- Nausea, grade 3 or greater TEAE ([1]; Total QDx5d QW (N = 15)): 1 (7%)
- Neutropenia, grade 3 or greater TEAE ([1]; Total QDx5d QW (N = 15)): 1 (7%)
- Pruritus, grade 3 or greater TEAE ([1]; Total QDx5d QW (N = 15)): 0 (0%)
- Rash, grade 3 or greater TEAE ([1]; Total QDx5d QW (N = 15)): 1 (7%)
- Thrombocytopenia, grade 3 or greater TEAE ([1]; Total QDx5d QW (N = 15)): 0 (0%)
- Vomiting, grade 3 or greater TEAE ([1]; Total QDx5d QW (N = 15)): 1 (7%)
- Anaemia, grade 3 or greater TEAE ([1]; Total QW Dosing (N = 22)): 2 (9%)
- Aspartate aminotransferase increase, grade 3 or greater TEAE ([1]; Total QW Dosing (N = 22)): 1 (5%)
- Asthenia, grade 3 or greater TEAE ([1]; Total QW Dosing (N = 22)): 1 (5%)
- Blood creatinine increase, grade 3 or greater TEAE ([1]; Total QW Dosing (N = 22)): 0 (0%)
- Deep vein thrombosis, grade 3 or greater TEAE ([1]; Total QW Dosing (N = 22)): 1 (5%)
- Diarrhoea, grade 3 or greater TEAE ([1]; Total QW Dosing (N = 22)): 1 (5%)
- Disease progression, grade 3 or greater TEAE ([1]; Total QW Dosing (N = 22)): 2 (9%)
- Fatigue, grade 3 or greater TEAE ([1]; Total QW Dosing (N = 22)): 1 (5%)
- Gamma-glutamyltransferase increase, grade 3 or greater TEAE ([1]; Total QW Dosing (N = 22)): 1 (5%)
- Hyperglycaemia, grade 3 or greater TEAE ([1]; Total QW Dosing (N = 22)): 0 (0%)
- Hypokalaemia, grade 3 or greater TEAE ([1]; Total QW Dosing (N = 22)): 1 (5%)
- Hyponatraemia, grade 3 or greater TEAE ([1]; Total QW Dosing (N = 22)): 0 (0%)
- Hypophsphataemia, grade 3 or greater TEAE ([1]; Total QW Dosing (N = 22)): 0 (0%)
- Lymphopenia, grade 3 or greater TEAE ([1]; Total QW Dosing (N = 22)): 1 (5%)
- Mucosal Inflammation, grade 3 or greater TEAE ([1]; Total QW Dosing (N = 22)): 0 (0%)
- Muscular weakness, grade 3 or greater TEAE ([1]; Total QW Dosing (N = 22)): 1 (5%)
- Nausea, grade 3 or greater TEAE ([1]; Total QW Dosing (N = 22)): 0 (0%)
- Neutropenia, grade 3 or greater TEAE ([1]; Total QW Dosing (N = 22)): 1 (5%)
- Pruritus, grade 3 or greater TEAE ([1]; Total QW Dosing (N = 22)): 0 (0%)
- Rash, grade 3 or greater TEAE ([1]; Total QW Dosing (N = 22)): 0 (0%)
- Thrombocytopenia, grade 3 or greater TEAE ([1]; Total QW Dosing (N = 22)): 0 (0%)
- Vomiting, grade 3 or greater TEAE ([1]; Total QW Dosing (N = 22)): 1 (5%)
- inhibition at 6 mg [2]: 60%
